Values of other authors, collected in patent US20160066563A1, “COMPOSITIONS AND METHODS FOR COLLECTING, WASHING, CRYOPRESERVING, RECOVERING AND RETURN OF LIPOASPIRATES TO PHYSICIAN FOR AUTOLOGOUS ADIPOSE TRANSFER PROCEDURES” (priority 2012, published 2016).

Tested on: cells
Details: at room temperature or body temperature

**Q.** For `C[S+](C)[O-]` [DMSO, dimethylsulfoxide], which toxicity to cells is on record?
**A.** toxic to cells

**Q.** With `OCC(O)CO` [glycerol] as the compound, how does the toxicity to cells read?
**A.** not toxic
